Experimental data from patent US4499083A, “3-O-Demethyl derivatives of the istamycin B series of compounds” (Zaidan Hojin Biseibutsu Kagaku Kenkyu Kai, priority 1980, dated 1985).
In brackets after ≈: the same amount, converted by molar mass. Read-outs that look alike come from different tables or passages of the source.

Columns and labels:
Assay in all cases: Antibacterial spectrum, MIC by serial dilution on nutrient agar
Format in all cases: cell-based
Escherichia coli K-12 R5 = details: K12R5, 17 h, read-out: Minimum inhibitory concentration
Serratia sp. SOU = details: 37° C., 17 hours, read-out: Minimum inhibitory concentration
[1] = tested on: Escherichia coli K-12 ML1410 R81; details: K12ML1410R81, 17 h, read-out: Minimum inhibitory concentration
Serratia sp. 4 = details: 37° C., 17 hours, read-out: Minimum inhibitory concentration
[2] = tested on: Pseudomonas aeruginosa K-Ps 102; details: read-out: Minimum inhibitory concentration
[3] = tested on: Pseudomonas aeruginosa ROS 134/PU21; details: ROS134/PU21, 17 h, read-out: Minimum inhibitory concentration
[4] = tested on: Pseudomonas aeruginosa PST1; details: 37° C., 17 hours, read-out: Minimum inhibitory concentration
[5] = tested on: Pseudomonas maltophilia GN 907; details: Stenotrophomonas maltophilia, GN907, 37° C., 17 hours, read-out: Minimum inhibitory concentration
[6] = tested on: Pseudomonas aeruginosa 99; details: 37° C., 17 hours, read-out: Minimum inhibitory concentration
[7] = tested on: Escherichia coli JR66/W677; details: JR66/W677, 17 h, read-out: Minimum inhibitory concentration
Proteus vulgaris OX19 = details: 37° C., 17 hours, read-out: Minimum inhibitory concentration
[8] = tested on: Escherichia coli K-12 R388; details: K12R388, 17 h, read-out: Minimum inhibitory concentration
[9] = tested on: Shigella dysenteriae JS11910; details: JS11910, 17 h, read-out: Minimum inhibitory concentration
[10] = tested on: Micrococcus flavus FDA 16; details: FDA16, 37° C., 17 hours, read-out: Minimum inhibitory concentration
[11] = tested on: Escherichia coli K-12 ML1410; details: read-out: Minimum inhibitory concentration
[12] = tested on: Staphylococcus epidermidis 109; details: 37° C., 17 hours, read-out: Minimum inhibitory concentration
[13] = tested on: Staphylococcus aureus FDA 209P; details: FDA209P, 37° C., 17 hours, read-out: Minimum inhibitory concentration
Providencia sp. 2991 = details: 37° C., 17 hours, read-out: Minimum inhibitory concentration
[14] = tested on: Pseudomonas aeruginosa No. 12; details: 37° C., 17 hours, read-out: Minimum inhibitory concentration
[15] = tested on: Pseudomonas aeruginosa TI-13; details: TI13, 37° C., 17 hours, read-out: Minimum inhibitory concentration
Escherichia coli NIHJ = details: read-out: Minimum inhibitory concentration
[16] = tested on: Staphylococcus aureus Ap01; details: 37° C., 17 hours, read-out: Minimum inhibitory concentration
Proteus rettgeri GN311 = details: Providencia rettgeri, 37° C., 17 hours, read-out: Minimum inhibitory concentration
Escherichia coli W677 = details: read-out: Minimum inhibitory concentration
[17] = tested on: Bacillus cereus ATCC 10702; details: read-out: Minimum inhibitory concentration
[18] = tested on: Klebsiella pneumoniae 22#3038; details: 37° C., 17 hours, read-out: Minimum inhibitory concentration
Procedure: (§1) The antibacterial spectra of 3-O-demethylistamycin B.sesquicarbonate and 3-O-demethyl-2"-N-formimidoylistamycin B.disulphate.trihydrate are shown in Table 2, along with that of istamycin B for comparison purposes.
(§2) Minimum inhibitory concentrations (mcg/ml)*^1
(§3) *^1 Determined according to a standard serial dilution method on
(§4) nutrient agar plates which were incubated at 37° C. for 17 hours.

[19] = tested on: Escherichia coli K-12 C600 R135; details: K12C600R135, 37° C., 17 hours, read-out: Minimum inhibitory concentration
Procedure: as §1, §2, §3, §4

[20] = tested on: Shigella flexneri 4B JS11811; details: 4BJS11811, 37° C., 17 hours, read-out: Minimum inhibitory concentration
Procedure: as §1, §2, §3, §4

Shigella sonnei JS11746 = details: 37° C., 17 hours, read-out: Minimum inhibitory concentration
Procedure: as §1, §2, §3, §4

[21] = tested on: Escherichia coli K-12 ML1629; details: K12ML1629, 37° C., 17 hours, read-out: Minimum inhibitory concentration
Procedure: as §1, §2, §3, §4

[22] = tested on: Escherichia coli K-12 ML1630; details: K12ML1630, 37° C., 17 hours, read-out: Minimum inhibitory concentration
Procedure: as §1, §2, §3, §4

[23] = tested on: Bacillus subtilis PCI 219; details: read-out: Minimum inhibitory concentration
[24] = tested on: Mycobacterium smegmatis ATCC 607; details: Mycolicibacterium smegmatis, read-out: Minimum inhibitory concentration
[25] = tested on: Escherichia coli K-12 LA290 R56; details: K12LA290R56, 17 h, read-out: Minimum inhibitory concentration
[26] = tested on: Pseudomonas aeruginosa H11; details: 37° C., 17 hours, read-out: Minimum inhibitory concentration
[27] = tested on: Corynebacterium bovis 1810; details: read-out: Minimum inhibitory concentration
[28] = KPS102, Pseudomonas aeruginosa K-Ps 102, nutrient agar, 37° C., 17 hours
[29] = Escherichia coli, K12ML1410, 17 h
[30] = Escherichia coli NIHJ, nutrient agar, 37° C., 17 hours
[31] = Escherichia coli W677, nutrient agar, 37° C., 17 hours
[32] = ATCC10702, Bacillus cereus ATCC 10702, nutrient agar, 37° C., 17 hours
[33] = PCI219, Bacillus subtilis PCI 219, nutrient agar, 37° C., 17 hours
[34] = ATCC607, Mycobacterium smegmatis ATCC 607, nutrient agar, 37° C., 17 hours
[35] = Corynebacterium bovis 1810, nutrient agar, 37° C., 17 hours

| Compound | MIC (Escherichia coli K-12 R5) | MIC (Serratia sp. SOU) | MIC [1] | MIC (Serratia sp. 4) | MIC [3] | MIC [4] | MIC [5] | MIC [6] | MIC [7] | MIC (Proteus vulgaris OX19) | MIC [8] | MIC [9] | MIC [10] | MIC [12] | MIC [13] | MIC (Providencia sp. 2991) | MIC [14] | MIC [15] | MIC [16] | MIC (Proteus rettgeri GN311) | other results |
| --- | --- | --- | --- | --- | --- | --- | --- | --- | --- | --- | --- | --- | --- | --- | --- | --- | --- | --- | --- | --- | --- |
| CNCC1CCC(N)C(OC2C(N)CC(O)C(N(C)C(=O)CNC=N)C2O)O1 (stereo not drawn) [3-O-Demethyl-2"-N-formimidoylistamycin B] | 3.13 µg/mL (≈ 7.78 µM) | > 100 µg/mL | 1.56 µg/mL (≈ 3.88 µM) | 6.25 µg/mL (≈ 15.5 µM) | 50 µg/mL (≈ 124 µM) | 25 µg/mL (≈ 62.1 µM) | > 100 µg/mL | 100 µg/mL (≈ 248 µM) | 3.13 µg/mL (≈ 7.78 µM) | 0.39 µg/mL (≈ 0.969 µM) | 1.56 µg/mL (≈ 3.88 µM) | 3.13 µg/mL (≈ 7.78 µM) | < 0.2 µg/mL | 0.78 µg/mL (≈ 1.94 µM) | 0.2 µg/mL (≈ 0.497 µM) | 12.5 µg/mL (≈ 31.1 µM) | 12.5 µg/mL (≈ 31.1 µM) | 6.25 µg/mL (≈ 15.5 µM) | 0.78 µg/mL (≈ 1.94 µM) | 12.5 µg/mL (≈ 31.1 µM) | MIC [2, 28]: 12.5 µg/mL (≈ 31.1 µM); MIC [11, 29]: 3.13 µg/mL (≈ 7.78 µM); MIC (Escherichia coli NIHJ; [30]): 1.56 µg/mL (≈ 3.88 µM); MIC (Escherichia coli W677; [31]): 0.78 µg/mL (≈ 1.94 µM); MIC [17, 32]: 1.56 µg/mL (≈ 3.88 µM); MIC [18]: 3.13 µg/mL (≈ 7.78 µM); MIC [19]: 12.5 µg/mL (≈ 31.1 µM); MIC [20]: 3.13 µg/mL (≈ 7.78 µM); MIC (Shigella sonnei JS11746): 3.13 µg/mL (≈ 7.78 µM); MIC [21]: 1.56 µg/mL (≈ 3.88 µM); MIC [22]: 1.56 µg/mL (≈ 3.88 µM); MIC [23, 33]: < 0.2 µg/mL; MIC [24, 34]: < 0.2 µg/mL; MIC [25]: 1.56 µg/mL (≈ 3.88 µM); MIC [26]: 25 µg/mL (≈ 62.1 µM); MIC [27, 35]: 0.78 µg/mL (≈ 1.94 µM) |
| CNCC1CCC(N)C(OC2C(N)CC(O)C(N(C)C(=O)CN)C2O)O1 (stereo not drawn) [3-O-Demethylistamycin B] | 6.25 µg/mL (≈ 16.6 µM) | 25 µg/mL (≈ 66.6 µM) | 3.13 µg/mL (≈ 8.34 µM) | 12.5 µg/mL (≈ 33.3 µM) | 50 µg/mL (≈ 133 µM) | 50 µg/mL (≈ 133 µM) | > 100 µg/mL | 25 µg/mL (≈ 66.6 µM) | 6.25 µg/mL (≈ 16.6 µM) | 0.78 µg/mL (≈ 2.08 µM) | 1.56 µg/mL (≈ 4.15 µM) | 6.25 µg/mL (≈ 16.6 µM) | 3.13 µg/mL (≈ 8.34 µM) | 0.78 µg/mL (≈ 2.08 µM) | 0.39 µg/mL (≈ 1.04 µM) | 12.5 µg/mL (≈ 33.3 µM) | 12.5 µg/mL (≈ 33.3 µM) | 12.5 µg/mL (≈ 33.3 µM) | 0.78 µg/mL (≈ 2.08 µM) | 12.5 µg/mL (≈ 33.3 µM) | MIC ([2]; Pseudomonas aeruginosa, KPS102, 17 h): 6.25 µg/mL (≈ 16.6 µM); MIC ([11]; K12ML1410, Escherichia coli K-12 ML1410, nutrient agar, 37° C., 17 hours): 3.13 µg/mL (≈ 8.34 µM); MIC (Escherichia coli NIHJ; Escherichia coli, 17 h): 1.56 µg/mL (≈ 4.15 µM); MIC (Escherichia coli W677; Escherichia coli, W677, 17 h): 1.56 µg/mL (≈ 4.15 µM); MIC ([17]; Bacillus cereus, ATCC10702, 17 h): 1.56 µg/mL (≈ 4.15 µM); MIC [18]: 6.25 µg/mL (≈ 16.6 µM); MIC [19]: 6.25 µg/mL (≈ 16.6 µM); MIC [20]: 6.25 µg/mL (≈ 16.6 µM); MIC (Shigella sonnei JS11746): 6.25 µg/mL (≈ 16.6 µM); MIC [21]: 3.13 µg/mL (≈ 8.34 µM); MIC [22]: 3.13 µg/mL (≈ 8.34 µM); MIC ([23]; Bacillus subtilis, PCI219, 17 h): < 0.2 µg/mL; MIC ([24]; ATCC607, 17 h): < 0.2 µg/mL; MIC [25]: 3.13 µg/mL (≈ 8.34 µM); MIC [26]: 25 µg/mL (≈ 66.6 µM); MIC ([27]; Corynebacterium bovis, 1810, 17 h): 1.56 µg/mL (≈ 4.15 µM) |
| CNCC1CCC(N)C(OC2C(N)CC(OC)C(N(C)C(=O)CN)C2O)O1 (stereo not drawn) [Istamycin B, istamycin B] | 3.13 µg/mL (≈ 8.04 µM) | 100 µg/mL (≈ 257 µM) | 1.56 µg/mL (≈ 4.01 µM) | 50 µg/mL (≈ 128 µM) | > 100 µg/mL | 100 µg/mL (≈ 257 µM) | > 100 µg/mL | > 100 µg/mL | 3.13 µg/mL (≈ 8.04 µM) | 0.39 µg/mL (≈ 1 µM) | 1.56 µg/mL (≈ 4.01 µM) | 3.13 µg/mL (≈ 8.04 µM) | 6.25 µg/mL (≈ 16 µM) | 0.78 µg/mL (≈ 2 µM) | 0.39 µg/mL (≈ 1 µM) | 6.25 µg/mL (≈ 16 µM) | 100 µg/mL (≈ 257 µM) | 25 µg/mL (≈ 64.2 µM) | 0.78 µg/mL (≈ 2 µM) | 12.5 µg/mL (≈ 32.1 µM) | MIC [2, 28]: 50 µg/mL (≈ 128 µM); MIC [11, 29]: 3.13 µg/mL (≈ 8.04 µM); MIC (Escherichia coli NIHJ; [30]): 1.56 µg/mL (≈ 4.01 µM); MIC (Escherichia coli W677; [31]): 1.56 µg/mL (≈ 4.01 µM); MIC [17, 32]: 1.56 µg/mL (≈ 4.01 µM); MIC [18]: 3.13 µg/mL (≈ 8.04 µM); MIC [19]: 12.5 µg/mL (≈ 32.1 µM); MIC [20]: 3.13 µg/mL (≈ 8.04 µM); MIC (Shigella sonnei JS11746): 3.13 µg/mL (≈ 8.04 µM); MIC [21]: 1.56 µg/mL (≈ 4.01 µM); MIC [22]: 1.56 µg/mL (≈ 4.01 µM); MIC [23, 33]: < 0.2 µg/mL; MIC [24, 34]: 0.78 µg/mL (≈ 2 µM); MIC [25]: 1.56 µg/mL (≈ 4.01 µM); MIC [26]: 50 µg/mL (≈ 128 µM); MIC [27, 35]: 0.78 µg/mL (≈ 2 µM) |
